Molecular target: T1, human V1A receptor (Homo sapiens, UniProt P37288)
T1 construct: expressed in transfected cells
Test: V1A filter binding assay ([3H]-AVP binding to CHO-hV1A membranes)
Conditions: screen 1.0, [3H]-AVP displacement
Method: 1.0 V1A Filter Binding Assay
Receptor binding assays were performed on cellular membranes prepared from CHO cells stably expressing the human V1A receptor, (CHO-hV1A). The CHO-hV1A cell line was kindly provided under a licensing agreement by Marc Thibonnier, Dept. of Medicine, Case Western Reserve University School of Medicine, Cleveland, Ohio. CHO-hV1A cells were routinely maintained at 37° C. in humidified atmosphere with 5% CO2 in DMEM/Hams F12 nutrient mix supplemented with 10% fetal bovine serum, 2 mM L-glutamine, 15 mM HEPES and 400 μg/ml G418. For bulk production of cell pellets, adherent CHO-hV1A cells were grown to confluency of 90-100% in 850 cm^2 roller bottles containing a medium of DMEM/Hams F12 Nutrient Mix supplemented with 10% fetal bovine serum, 2 mM L-glutamine and 15 mM HEPES. Confluent CHO-hV1A cells were washed with phosphate-buffered saline (PBS), harvested into ice cold PBS and centrifuged at 1,000 rpm. Cell pellets were stored at −80° C. until use. Cell pellets were thawed on ice and homogenised in membrane preparation buffer consisting of 50 mM Tris-HCl, pH 7.4, 5 mM MgCl2 and supplemented with a protease inhibitor cocktail, (Roche). The cell homogenate was centrifuged at 1000 rpm, 10 min, 4° C. and the supernatant was removed and stored on ice. The remaining pellet was homogenised and centrifuged as before. The supernatants were pooled and centrifuged at 25,000×g for 30 min at 4° C. The pellet was resuspended in freezing buffer consisting of 50 mM Tris-HCl, pH 7.4, 5 mM MgCl2 and 20% glycerol and stored in small aliquots at −80° C. until use. Protein concentration was determined using Bradford reagent and BSA as a standard.
Protein linearity followed by saturation binding studies were performed on each new batch of membrane. Membrane concentration was chosen that gave specific binding on the linear portion of the curve. Saturation binding studies were then performed using various concentrations of [^3H]-arginine vasopressin, [^3H]-AVP (0.05 nM-100 nM) and the Kd and Bmax determined.
Compounds were tested for their effects on [^3H]-AVP binding to CHO-hV1A membranes, (^3H-AVP; specific activity 65.5 Ci/mmol; NEN Life Sciences). Compounds were solubilised in dimethylsulfoxide (DMSO) and diluted to working concentration of 10% DMSO with assay buffer containing 50 mM Tris-HCL pH 7.4, 5 mM MgCl2 and 0.05% BSA. […] The binding reaction was initiated by the addition of 200 μl membrane and the plates were gently shaken for 60 min at room temperature. The reaction was terminated by rapid filtration using a Filtermate Cell Harvester (Packard Instruments) through a 96-well GF/B UniFilter Plate which had been presoaked in 0.5% polyethyleneimine to prevent peptide sticking. The filters were washed three times with 1 ml ice cold wash buffer containing 50 mM Tris-HCL pH 7.4 and 5 mM MgCl2. The plates were dried and 50 μl Microscint-0 (Packard instruments) was added to each well. The plates were sealed and counted on a TopCount Microplate Scintillation Counter (Packard Instruments). Non-specific binding (NSB) was determined using 1 μM unlabelled d(CH2)5Tyr(Me)AVP ([β-mercapto-β,β-cyclopentamethylenepropionyl,0-Me-Tyr^2,Arg^8]-vasopressin) (βMCPVP), (Sigma). The radioligand binding data was analysed using a four parameter logistic equation with the min forced to 0%. The slope was free fitted and fell between −0.75 and −1.25 for valid curves. Specific binding was calculated by subtracting the mean NSB cpm from the mean Total cpm. For test compounds the amount of ligand bound to the receptor was expressed as % bound=(sample cpm−mean NSB cpm)/specific binding cpm×100. The % bound was plotted against the concentration of test compound and a sigmoidal curve was fitted. The inhibitory dissociation constant (Ki) was calculated using the Cheng-Prusoff equation: Ki=IC50/(1+[L]/Kd) where [L] is the concentration of ligand present in the well and Kd is the dissociation constant of the radioligand obtained from Scatchard plot analysis. […]

T1 sequence (P37288 whole entry): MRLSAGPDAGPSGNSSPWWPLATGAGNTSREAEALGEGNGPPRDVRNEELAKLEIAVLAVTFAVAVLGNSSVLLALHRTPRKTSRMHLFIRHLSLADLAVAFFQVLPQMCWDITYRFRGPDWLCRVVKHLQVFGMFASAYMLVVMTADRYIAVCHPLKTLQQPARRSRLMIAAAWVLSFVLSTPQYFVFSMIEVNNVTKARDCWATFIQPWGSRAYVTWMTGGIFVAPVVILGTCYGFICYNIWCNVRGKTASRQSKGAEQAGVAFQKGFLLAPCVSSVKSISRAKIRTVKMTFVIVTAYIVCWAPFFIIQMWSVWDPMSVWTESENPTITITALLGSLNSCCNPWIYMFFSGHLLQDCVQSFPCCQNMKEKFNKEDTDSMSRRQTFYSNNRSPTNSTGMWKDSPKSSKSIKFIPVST

| Structure (SMILES) | Ki [nM] |
| --- | --- |
| CN1Cc2cc(Cl)ccc2-n2c(nnc2C2CCN(C(=O)c3c[nH]c4ccccc34)CC2)C1 [Example 1, [4-(8-Chloro-5-methyl-5,6-dihydro-4H-2,3,5,10b-tetraaza-benzo[e]azulen-1-yl)-piperidin-1-yl]-(1H-indol-3-yl)-methanone] | 73.8 |
| CN1Cc2cc(Cl)ccc2-n2c(nnc2C2CCN(C(=O)c3ccc4cc[nH]c4c3)CC2)C1 [Example 67, [4-(8-Chloro-5-methyl-5,6-dihydro-4H-2,3,5,10b-tetraaza-benzo[e]azulen-1-yl)-piperidin-1-yl]-(1H-indol-6-yl)-methanone] | 15.9 |
| Cc1ccccc1CC(=O)N1CCC(c2nnc3n2-c2ccc(Cl)cc2CN(C)C3)CC1 [Example 2, 1-[4-(8-Chloro-5-methyl-5,6-dihydro-4H-2,3,5,10b-tetraaza-benzo[e]azulen-1-yl)-piperidin-1-yl]-2-o-tolyl-ethanone] | 35 |
| CN1Cc2cc(Cl)ccc2-n2c(nnc2C2CCN(C(=O)C3(C)CCCCC3)CC2)C1 [Example 9, [4-(8-Chloro-5-methyl-5,6-dihydro-4H-2,3,5,10b-tetraaza-benzo[e]azulen-1-yl)-piperidin-1-yl]-(1-methyl-cyclohexyl)-methanone] | 59.9 |
| CN1Cc2cc(Cl)ccc2-n2c(nnc2C2CCN(C(=O)CC3CC3)CC2)C1 [Example 18, 1-[4-(8-Chloro-5-methyl-5,6-dihydro-4H-2,3,5,10b-tetraaza-benzo[e]azulen-1-yl)-piperidin-1-yl]-2-cyclopropyl-ethanone] | 62.1 |
| CN1Cc2cc(Cl)ccc2-n2c(nnc2C2CCN(C(=O)c3cc4ccccc4[nH]3)CC2)C1 [Example 64, [4-(8-Chloro-5-methyl-5,6-dihydro-4H-2,3,5,10b-tetraaza-benzo[e]azulen-1-yl)-piperidin-1-yl]-(1H-indol-2-yl)-methanone] | 34.7 |

Source: US20070167430A1, “Compounds useful in therapy” (priority 2004, published 2007)
